Source: patent US8575153B2 (Kowa Company, Ltd., priority 2008, dated 2013)

Target: Recombinant human JAK3 enzyme (JAK3 kinase region; Ala795-Ser1124) (Homo sapiens, UniProt P52333)
Test: JAK3 Kinase Assay (Kinase-Glo luminescent, ATP consumption)
Conditions: for inhibition at 0.1 µM / inhibition at 1 µM: read-out: Inhibition rate (%) of JAK3 kinase activity
Experimental: Recombinant human JAK3 enzyme (JAK3 kinase region; Ala795-Ser1124) was purchased from Carna Biosciences, Inc.
The reaction was conducted in a kinase buffer (reaction volume: a total of 50 μl) containing 8 mM MOPS (pH 7.0), 0.2 mM EDTA, a test compound solution prepared to each concentration and 0.5 μg/ml JAK3 enzyme using a 96-well polystyrene plate (clear-bottom white-wall). […] After incubating them at room temperature for 2 hours, 50 μl of Kinase-Glo Luminescent Kinase Assay reagent (Promega) was added to each well, and further incubated at room temperature for 10 minutes. Using a chemiluminescence microplate reader MicroLumat LB96P (Berthold), chemiluminescence intensity was measured to quantitate the amount of ATP remaining after reaction. From the amount of ATP consumed in the phosphorylation reaction, the inhibition rate (%) of JAK3 kinase activity was determined.

Recombinant human JAK3 enzyme (JAK3 kinase region; Ala795-Ser1124), sequence (P52333 795-1124): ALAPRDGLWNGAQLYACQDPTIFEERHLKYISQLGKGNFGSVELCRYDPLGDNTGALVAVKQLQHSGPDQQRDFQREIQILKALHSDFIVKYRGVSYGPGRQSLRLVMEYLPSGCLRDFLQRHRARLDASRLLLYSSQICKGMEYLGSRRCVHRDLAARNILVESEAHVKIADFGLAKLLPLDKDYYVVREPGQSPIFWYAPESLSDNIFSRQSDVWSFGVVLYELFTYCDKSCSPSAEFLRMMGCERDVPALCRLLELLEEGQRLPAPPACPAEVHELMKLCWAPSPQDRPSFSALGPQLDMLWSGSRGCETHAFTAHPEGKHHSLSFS

Row | inhibition at 0.1 µM | Structure (SMILES) | further results
1 | 86% | NC(=O)c1cnc(Nc2ccc(N3CCOCC3)cc2)cc1NCc1cc(F)ccc1F [Example 93, 4-[(2,5-difluorobenzyl)amino]-6-[(4-morpholinophenyl)amino]pyridine-3-carboxyamide] | 
2 | 56% | COc1ccccc1CNc1cc(Nc2ccc(N3CCOCC3)cc2)ncc1C(N)=O [Example 73, 4-[(2-methoxybenzyl)amino]-6-[(4-morpholinophenyl)amino]pyridine-3-carboxyamide] | 
3 | 71% | NC(=O)c1cnc(Nc2ccc(N3CCCS3(=O)=O)cc2)cc1NCc1ccccc1 [Example 307, 4-(benzylamino)-6-{[4-(1,1-dioxo-1,2-thiazolidin-2-yl)phenyl]amino}pyridine-3-carboxyamide] | 
4 | 89% | CCN(CC)C(=O)N1CCN(c2ccc(Nc3cc(NCc4ccccc4)c(C(N)=O)cn3)cc2)CC1 [Example 282, 4-(benzylamino)-6-({4-[(4-diethylcarbamoyl)piperazin-1-yl]phenyl}amino)pyridine-3-carboxyamide] | 
5 | 72% | NC(=O)c1cnc(Nc2ccc(N3CCOCC3)cc2)cc1NCc1cccc(Cl)c1 [Example 81, 4-[(3-chlorobenzyl)amino]-6-[(4-morpholinophenyl)amino]pyridine-3-carboxyamide] | 
6 | 83% | CCN(CC)CCN1CCN(c2ccc(Nc3cc(NCc4ccccc4)c(C(N)=O)cn3)cc2)CC1 [Example 236, 4-(benzylamino)-6-[(4-{4-[2-(diethylamino)ethyl]piperazin-1-yl}phenyl)amino]pyridine-3-carboxyamide] | 
7 | 84% | CS(=O)(=O)N1CCN(c2ccc(Nc3cc(NCc4cccc(F)c4F)c(C(N)=O)cn3)cc2)CC1 [Example 292, 4-[(2,3-difluorobenzyl)amino]-6-({4-[4-(methylsulfonyl)piperazin-1-yl]phenyl}amino)pyridine-3-carboxyamide] | 
8 | 71% | NC(=O)c1cnc(Nc2ccc(C(=O)C(F)(F)F)cc2)cc1NCc1cc(F)cc(F)c1 [Example 326, 4-[(3,5-difluorobenzyl)amino]-6-{[(4-trifluoroacetyl)phenyl]amino}pyridine-3-carboxyamide] | 
9 | 96% | CCN(CC)CC(=O)N1CCN(c2ccc(Nc3cc(NCc4cc(F)cc(F)c4)c(C(N)=O)cn3)cc2)CC1 [Example 275, 6-({4-[4-(N,N-diethylglycyl)piperazin-1-yl]phenyl}amino)-4-[(3,5-difluorobenzyl)amino]pyridine-3-carboxyamide] | 

The remaining lines, values behind:

Row | Structure (SMILES) | inhibition at 0.1 µM | further results
10 | NC(=O)c1cnc(Nc2ccc(N3CCNCC3)cc2)cc1NCc1c(F)cccc1F [Example 223, 4-[(2,6-difluorobenzyl)amino]-6-{[4-(piperazin-1-yl)phenyl]amino}pyridine-3-carboxyamide] | 81% | 
11 | NC(=O)c1cnc(Nc2ccc(N3CCOCC3)cc2)cc1NCc1cccc(F)c1F [Example 90, 4-[(2,3-difluorobenzyl)amino]-6-[(4-morpholinophenyl)amino]pyridine-3-carboxyamide] | 77% | 
12 | NC(=O)c1cnc(Nc2ccc(N3CCC(CCO)CC3)cc2)cc1NCc1cccc([N+](=O)[O-])c1 [Example 180, 6-({4-[4-(2-hydroxyethyl)piperidino]phenyl}amino)-4-[(3-nitrobenzyl)amino]pyridine-3-carboxyamide] | 63% | 
13 | CS(=O)(=O)Nc1ccc(Nc2cc(NCc3cccc([N+](=O)[O-])c3)c(C(N)=O)cn2)cc1 [Example 160, 4-[(3-nitrobenzyl)amino]-6-({4-[(methylsulfonyl)amino]phenyl}amino)pyridine-3-carboxyamide] | 66% | 
14 | CC(C)S(=O)(=O)Nc1cccc(Nc2cc(NCc3cc(F)cc(F)c3)c(C(N)=O)cn2)c1 [Example 165, 4-[(3,5-difluorobenzyl)amino]-6-({3-[(propan-2-ylsulfonyl)amino]phenyl}amino)pyridine-3-carboxyamide] | 54% | 
15 | CC(=O)N1CCCC1CNc1cc(Nc2ccc(N3CCOCC3)cc2)ncc1C(N)=O (stereo not drawn) [Example 360, 4-{[(1-acetylpyrrolidin-2-yl)methyl]amino}-6-[(4-morpholinophenyl)amino]pyridine-3-carboxyamide] |  | inhibition at 1 µM: 57%
16 | NC(=O)c1cnc(Nc2ccc(N)cc2)cc1NCc1ccccc1 [Example 65, 6-[(4-aminophenyl)amino]-4-(benzylamino) pyridine-3-carboxyamide] | 79% | 
17 | CC(C)S(=O)(=O)N1CCN(c2cccc(Nc3cc(NCc4cc(F)cc(F)c4)c(C(N)=O)cn3)c2)CC1 [Example 174, 4-[(3,5-difluorobenzyl)amino]-6-({3-[4-(propan-2-ylsulfonyl)piperazin-1-yl]phenyl}amino) pyridine-3-carboxyamide] |  | Inhibition rate (%) of JAK3 kinase activity (test compound at 0.1 μM): 58%
18 | CN1CCCC1CNc1cc(Nc2ccc(N3CCOCC3)cc2)ncc1C(N)=O (stereo not drawn) [Example 359, 4-{[(1-methylpyrrolidin-2-yl)methyl]amino}-6-[(4-morpholinophenyl)amino]pyridine-3-carboxyamide] |  | inhibition at 1 µM: 61%
19 | C[C@@H]1CN(c2ccc(Nc3cc(NCc4cc(F)ccc4F)c(C(N)=O)cn3)cc2)C[C@H](C)N1 [Example 142, 4-[(2,5-difluorobenzyl)amino]-6-({4-[(3R,5S)-3,5-dimethylpiperazin-1-yl]phenyl}amino) pyridine-3-carboxyamide] | 66% | 
20 | C[C@@H]1CN(c2cccc(Nc3cc(NCc4cc(F)cc(F)c4)c(C(N)=O)cn3)c2)C[C@H](C)N1 [Example 144, 4-[(3,5-difluorobenzyl)amino]-6-({3-[(3R,5S)-3,5-dimethylpiperazin-1-yl]phenyl}amino) pyridine-3-carboxyamide] | 61% | 
21 | NC(=O)c1cnc(-c2c[nH]c3ncccc23)cc1NCc1cc(F)cc(F)c1 [Example 371, 4-[(3,5-difluorobenzyl)amino]-6-(1H-pyrrolo[2,3-b]pyridin-3-yl)pyridine-3-carboxyamide] |  | inhibition at 1 µM: 42%
22 | C[C@@H]1CN(c2ccc(Nc3cc(NCc4cc(F)cc(F)c4)c(C(N)=O)cn3)cc2)C[C@H](C)N1 [Example 141, 4-[(3,5-difluorobenzyl)amino]-6-({4-[(3R,5S)-3,5-dimethylpiperazin-1-yl]phenyl}amino) pyridine-3-carboxyamide] | 83% | 
23 | CS(=O)(=O)N1CCN(c2ccc(Nc3cc(NCc4cc(F)cc(F)c4)c(C(N)=O)cn3)cc2)CC1 [Example 293, 4-[(3,5-difluorobenzyl)amino]-6-({4-[4-(methylsulfonyl)piperazin-1-yl]phenyl}amino)pyridine-3-carboxyamide] | 61% | 
24 | CC(C)N1CCN(c2ccc(Nc3cc(NCc4cccc(F)c4F)c(C(N)=O)cn3)cc2)CC1 [Example 150, 4-[(2,3-difluorobenzyl)amino]-6-({4-[4-(propan-2-yl)piperazin-1-yl]phenyl}amino)pyridine-3-carboxyamide] | 66% | 
25 | CCN(CC)CC(=O)N1CCN(c2ccc(Nc3cc(NCc4cccc(F)c4F)c(C(N)=O)cn3)cc2)CC1 [Example 205, 6-({4-[4-(N,N-diethylglycyl)piperazin-1-yl]phenyl}amino}-4-[(2,3-difluorobenzyl)amino]pyridine-3-carboxyamide] | 98% | 
26 | CC(C)N1CCN(c2ccc(Nc3cc(NCc4ccccc4)c(C(N)=O)cn3)cc2)CC1 [Example 146, 4-(benzylamino)-6-({4-[4-(propan-2-yl)piperazin-1-yl]phenyl}amino)pyridine-3-carboxyamide] | 78% | 
27 | C[C@H]1COCCN1c1ccc(Nc2cc(NCc3ccccc3)c(C(N)=O)cn2)cc1 [Example 134, 4-(benzylamino)-6-({4-[(3S)-3-methylmorpholino]phenyl}amino)pyridine-3-carboxyamide] | 83% | 
28 | CCN(CC)CC(=O)N1CCN(c2ccc(Nc3cc(NCc4ccccc4)c(C(N)=O)cn3)cc2)CC1 [Example 274, 4-(benzylamino)-6-({4-[4-(N,N-diethylglycyl)piperazin-1-yl]phenyl}amino)pyridine-3-carboxyamide] | 79% | 
29 | NC(=O)c1cnc(Nc2ccc(N3CCOCC3)cc2)cc1NCC1CCCCC1 [Example 361, 4-[(cyclohexylmethyl)amino]-6-[(4-morpholinophenyl)amino]pyridine-3-carboxyamide] |  | inhibition at 1 µM: 83%
30 | NC(=O)c1cnc(Nc2ccc(N3CCOCC3)cc2)cc1NCc1cccnc1 [Example 353, 6-[(4-morpholinophenyl)amino]-4-[(pyridin-3-ylmethyl)amino}pyridine-3-carboxyamide] |  | inhibition at 1 µM: 65%
31 | NC(=O)c1cnc(Nc2ccc(N3CCC(O)CC3)cc2)cc1NCc1cc(F)ccc1F [Example 188, 4-[(2,5-difluorobenzyl)amino]-6-[(4-(4-hydroxypiperidino)phenyl]amino}pyridine-3-carboxyamide] | 89% | 
32 | Cc1ccc(S(=O)(=O)n2cc(-c3cc(NCc4cc(F)cc(F)c4)c(C(N)=O)cn3)c3cccnc32)cc1 [Example 370, 4-[(3,5-difluorobenzyl)amino]-6-{1-[(4-methylphenyl)sulfonyl}-1H-pyrrolo[2,3-b]pyridin-3-yl}pyridine-3-carboxyamide] |  | inhibition at 1 µM: 13%
33 | N#CCC(=O)N1CCN(c2ccc(Nc3cc(NCc4ccccc4)c(C(N)=O)cn3)cc2)CC1 [Example 262, 4-(benzylamino)-6-({4-[4-(cyanoacetyl)piperazin-1-yl]phenyl}amino)pyridine-3-carboxyamide] | 78% | 
34 | CC1CCCCC1Nc1cc(Nc2ccc(N3CCOCC3)cc2)ncc1C(N)=O (stereo not drawn) [Example 349, 4-[(2-methylcyclohexyl)amino]-6-[(4-morpholinophenyl)amino]pyridine-3-carboxyamide] |  | inhibition at 1 µM: 90%
35 | NC(=O)c1cnc(Nc2ccc(N3CCC(CCO)CC3)cc2)cc1NCc1ccccc1 [Example 57, 4-(benzylamino)-6-({4-[4-(2-hydroxyethyl)piperidino]phenyl}amino)pyridine-3-carboxyamide] | 89% | 
36 | CCN(CC)CCN1CCN(c2ccc(Nc3cc(NCc4cc(F)cc(F)c4)c(C(N)=O)cn3)cc2)CC1 [Example 238, 6-[(4-{4-[2-(diethylamino)ethyl]piperazin-1-yl}phenyl)amino]-4-[(3,5-difluorobenzyl)amino]pyridine-3-carboxyamide] | 100% | 
